What was measured:
rat TAAR1 = rat TAAR1 (Rattus norvegicus (Rat), UniProt Q923Y9); test: Radioligand binding assay on rat TAAR1; conditions: rat TAAR1, HEK-293 membranes; second value of the pair (line below); read-out: Ki (μM) mouse/rat
Method: (§1) For the construction of expression plasmids the coding sequences of human, rat and mouse TAAR 1 were amplified from genomic DNA essentially as described by Lindemann et al.. The Expand High Fidelity PCR System (Roche Diagnostics) was used with 1.5 mM Mg^2+ and purified PCR products were cloned into pCR2.1-TOPO cloning vector (Invitrogen) following the instructions of the manufacturer. PCR products were subcloned into the pIRESneo2 vector (BD Clontech, Palo Alto, Calif.), and expression vectors were sequence verified before introduction in cell lines.
(§2) HEK293 cells (ATCC # CRL-1573) were cultured essentially as described by Lindemann et al. (2005). For the generation of stably transfected cell lines HEK293 cells were transfected with the pIRESneo2 expression plasmids containing the TAAR coding sequences (described above) with Lipofectamine 2000 (Invitrogen) according to the instructions of the manufacturer, and 24 hrs post transfection the culture medium was supplemented with 1 mg/ml G418 (Sigma, Buchs, Switzerland). After a culture period of about 10 d clones were isolated, expanded and tested for responsiveness to trace amines (all compounds purchased from Sigma) with the cAMP Biotrak Enzyme immunoassay (EIA) System (Amersham) following the non-acetylation EIA procedure provided by the manufacturer.
Radioligand Binding Assay on Rat TAAR1
(§3) Membrane Preparation and Radioligand Binding.
(§4) HEK-293 cells stably expressing rat TAAR1 were maintained at 37° C. and 5% CO2 in DMEM high glucose medium, containing fetal calf serum (10%, heat inactivated for 30 min at 56° C.), penicillin/streptomycin (1%), and 375 μg/ml geneticin (Gibco). Cells were released from culture flasks using trypsin/EDTA, harvested, washed twice with ice-cold PBS (without Ca^2+ and Mg^2+), pelleted at 1′000 rpm for 5 min at 4° C., frozen and stored at −80° C. […] The homogenate was centrifuged at 48′000×g for 30 min at 4° C. Subsequently, the supernatant was removed and discarded, and the pellet resuspended in 20 ml HEPES-NaOH (20 mM, pH 7.4) containing 0.1 mM EDTA using the Polytron (20 s at 14′000 rpm). This procedure was repeated and the final pellet resuspended in HEPES-NaOH containing 0.1 mM EDTA and homogenized using the Polytron. Typically, aliquots of 2 ml membrane portions were stored at −80° C. With each new membrane batch the dissociation constant (Kd) was determined via a saturation curve. […] Nonspecific binding was defined as the amount of ^3[H]-(S)-4-[(ethyl-phenyl-amino)-methyl]-4,5-dihydro-oxazol-2-ylamine bound in the presence of 10 μM unlabeled ligand. All compounds were tested at a broad range of concentrations (10 pM to 10 μM) in duplicates. […] The 96 deep well plates were incubated for 1 hr at 4° C. Incubations were terminated by rapid filtration through Unifilter-96 plates (Packard Instrument Company) and glass filters GF/C (Perkin Elmer) presoaked for 1 hr in polyethylenimine (0.3%) and washed 3 times with 1 ml of cold binding buffer. After addition of 45 μl of Microscint 40 (PerkinElmer) the Unifilter-96 plate was sealed and after 1 hr the ratioactivity counted using a TopCount Microplate Scintillation Counter (Packard Instrument Company).

mouse TAAR1 = mouse TAAR1 (Mus musculus (Mouse), UniProt Q923Y8); test: Radioligand binding assay on mouse TAAR1; conditions: mouse TAAR1, HEK-293 membranes; first value of the pair (before the slash); read-out: Ki (μM) mouse/rat
mouse TAAR1, sequence (Q923Y8 whole entry): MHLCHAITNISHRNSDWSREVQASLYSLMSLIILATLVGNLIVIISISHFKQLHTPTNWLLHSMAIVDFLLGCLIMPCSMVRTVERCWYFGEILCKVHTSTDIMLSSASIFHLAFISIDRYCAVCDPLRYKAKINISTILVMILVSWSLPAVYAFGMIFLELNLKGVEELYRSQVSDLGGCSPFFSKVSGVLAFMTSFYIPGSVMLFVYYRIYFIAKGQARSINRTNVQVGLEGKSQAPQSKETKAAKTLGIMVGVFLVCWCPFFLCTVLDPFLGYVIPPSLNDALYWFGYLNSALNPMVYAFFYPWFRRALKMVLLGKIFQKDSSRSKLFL
Method: as §1, §2
Radioligand Binding Assay on Mouse TAAR1
as §3
as §4, with “expressing mouse” for “expressing rat”

rat TAAR1, sequence (Q923Y9 whole entry): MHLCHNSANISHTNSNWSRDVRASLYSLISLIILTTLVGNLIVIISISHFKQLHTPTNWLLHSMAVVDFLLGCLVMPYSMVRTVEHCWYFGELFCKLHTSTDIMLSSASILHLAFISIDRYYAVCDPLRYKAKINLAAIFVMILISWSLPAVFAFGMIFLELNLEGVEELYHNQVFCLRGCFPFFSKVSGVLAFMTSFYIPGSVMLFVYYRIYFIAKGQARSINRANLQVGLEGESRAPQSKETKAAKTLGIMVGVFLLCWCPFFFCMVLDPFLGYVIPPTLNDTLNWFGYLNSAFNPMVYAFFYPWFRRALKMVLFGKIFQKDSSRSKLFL

| Structure (SMILES) | Ki (rat TAAR1) [µM] | Ki (mouse TAAR1) [µM] |
| --- | --- | --- |
| O=C(Nc1ccc(Cl)nc1)Nc1ccc(C2CNCCO2)cc1Cl (racemic) [Example 14, (RS)-1-(2-Chloro-4-morpholin-2-yl-phenyl)-3-(6-chloro-pyridin-3-yl)-urea] | 0.0039 | – |
| N#Cc1cc(C2CNCCO2)ccc1NC(=O)c1ccn(-c2ccc(F)cc2)n1 (racemic) [Example 28, (RS)—N-(2-Cyano-4-(morpholin-2-yl)phenyl)-1-(4-fluorophenyl)-1H-pyrazole-3-carboxamide] | – | 0.014 |
| N#Cc1cccc(NC(=O)Nc2ccc(C3CNCCO3)cc2C#N)c1 (racemic) [Example 33, (RS)-1-(2-Cyano-4-morpholin-2-yl-phenyl)-3-(3-cyano-phenyl)-urea] | 1.51 | – |
| O=C(Nc1ccc(Cl)nc1)Nc1ccc(C2CCNC2)cc1Cl (racemic) [Example 38, (RS)-1-(6-Chloro-pyridin-3-yl)-3-(2-chloro-4-pyrrolidin-3-yl-phenyl)-urea] | 0.0191 | 0.0029 |
| O=C(Nc1ccc(Cl)nc1)Nc1ccc(C2CCCNC2)cc1Cl (racemic) [Example 41] | 0.009 | 0.0015 |
| O=C(Nc1ccc(C2CCCNC2)cc1Cl)c1ccc(Cl)nc1 (racemic) [Example 43, (RS)-6-Chloro-N-(2-chloro-4-piperidin-3-yl-phenyl)-nicotinamide] | 0.367 | 0.0164 |
| O=C(Nc1ccc([C@@H]2CNCCO2)cc1F)c1n[nH]c2cc(F)ccc12 [Example 1, 6-Fluoro-1H-indazole-3-carboxylic acid ((R)-2-fluoro-4-morpholin-2-yl-phenyl)-amide] | 0.0051 | 0.001 |
| O=C(Nc1ccc([C@H]2CNCCO2)cc1F)c1n[nH]c2cc(F)ccc12 [Example 2, 6-Fluoro-1H-indazole-3-carboxylic acid ((S)-2-fluoro-4-morpholin-2-yl-phenyl)-amide] | 0.0009 | 0.0012 |
| N#Cc1cccc(NC(=O)Nc2ccc([C@@H]3CNCCO3)cc2F)c1 [Example 3, 1-(3-Cyano-phenyl)-3-((R)-2-fluoro-4-morpholin-2-yl-phenyl)-urea] | 0.0015 | 0.0016 |
| N#Cc1cccc(NC(=O)Nc2ccc([C@H]3CNCCO3)cc2F)c1 [Example 4, 1-(3-Cyano-phenyl)-3-((S)-2-fluoro-4-morpholin-2-yl-phenyl)-urea] | 0.0028 | 0.0017 |
| O=C(Nc1ccc(Cl)nc1)Nc1ccc([C@@H]2CNCCO2)cc1F [Example 8, 1-(6-Chloro-pyridin-3-yl)-3-((R)-2-fluoro-4-morpholin-2-yl-phenyl)-urea] | 0.0039 | 0.0026 |
| O=C(Nc1ccc(Cl)nc1)Nc1ccc([C@H]2CNCCO2)cc1F [Example 9, 1-(6-Chloro-pyridin-3-yl)-3-((S)-2-fluoro-4-morpholin-2-yl-phenyl)-urea] | 0.0105 | 0.0017 |
| O=C(Nc1ccc(C(F)(F)F)nc1)Nc1ccc([C@@H]2CNCCO2)cc1F [Example 10, 1-((R)-2-Fluoro-4-morpholin-2-yl-phenyl)-3-(6-trifluoromethyl-pyridin-3-yl)-urea] | 0.0033 | 0.0033 |
| O=C(Nc1ccc(C(F)(F)F)nc1)Nc1ccc([C@H]2CNCCO2)cc1F [Example 11, 1-((S)-2-Fluoro-4-morpholin-2-yl-phenyl)-3-(6-trifluoromethyl-pyridin-3-yl)-urea] | 0.0095 | 0.0035 |
| O=C(Nc1ccc([C@@H]2CNCCO2)cc1F)c1ccn(-c2ccc(F)cc2)n1 [Example 12, 1-(4-Fluoro-phenyl)-1H-pyrazole-3-carboxylic acid ((R)-2-fluoro-4-morpholin-2-yl-phenyl)-amide] | 0.0006 | 0.0026 |
| O=C(Nc1ccc([C@H]2CNCCO2)cc1F)c1ccn(-c2ccc(F)cc2)n1 [Example 13, 1-(4-Fluoro-phenyl)-1H-pyrazole-3-carboxylic acid ((S)-2-fluoro-4-morpholin-2-yl-phenyl)-amide] | 0.0024 | 0.0011 |
| N#Cc1cccc(CNC(=O)Nc2ccc([C@@H]3CNCCO3)cc2F)c1 [Example 15, 1-(3-Cyano-benzyl)-3-((R)-2-fluoro-4-morpholin-2-yl-phenyl)-urea] | 0.0544 | 0.0074 |
| Cn1nc(-c2ccccc2)cc1C(=O)Nc1ccc([C@H]2CNCCO2)cc1F [Example 17, 2-Methyl-5-phenyl-2H-pyrazole-3-carboxylic acid ((S)-2-fluoro-4-morpholin-2-yl-phenyl)-amide] | 0.0128 | 0.0151 |
| O=C(Nc1ccc(Cl)nc1)Nc1ccc([C@H]2CNCCO2)cc1Cl [Example 19, (S)-1-(2-Chloro-4-morpholin-2-yl-phenyl)-3-(6-chloro-pyridin-3-yl)-urea] | 0.0034 | – |
| O=C(Nc1ccc(Cl)nc1)Nc1ccc([C@@H]2CNCCO2)cc1Cl [Example 20, (R)-1-(2-Chloro-4-morpholin-2-yl-phenyl)-3-(6-chloro-pyridin-3-yl)-urea] | 0.005 | – |
| O=C(Nc1ccc([C@@H]2CNCCO2)cc1F)c1cnn(-c2ccc(F)cc2)c1 [Example 21, (R)—N-(2-fluoro-4-(morpholin-2-yl)phenyl)-1-(4-fluorophenyl)-1H-pyrazole-4-carboxamide] | 0.0022 | 0.0032 |
| O=C(Nc1ccc([C@H]2CNCCO2)cc1F)c1cnn(-c2ccc(F)cc2)c1 [Example 22, (S)—N-(2-fluoro-4-(morpholin-2-yl)phenyl)-1-(4-fluorophenyl)-1H-pyrazole-4-carboxamide] | 0.0036 | 0.002 |
| Cn1nc(-c2ccccc2)cc1C(=O)Nc1ccc([C@@H]2CNCCO2)cc1F [Example 23, 2-Methyl-5-phenyl-2H-pyrazole-3-carboxylic acid ((R)-2-fluoro-4-morpholin-2-yl-phenyl)-amide] | 0.0033 | 0.0254 |
| COc1cc(C(=O)Nc2ccc([C@@H]3CNCCO3)cc2F)cc(Cl)n1 [Example 24, 2-Chloro-N—((R)-2-fluoro-4-morpholin-2-yl-phenyl)-6-methoxy-isonicotinamide] | 0.007 | 0.0032 |
| COc1cc(C(=O)Nc2ccc([C@H]3CNCCO3)cc2F)cc(Cl)n1 [Example 25, 2-Chloro-N—((S)-2-fluoro-4-morpholin-2-yl-phenyl)-6-methoxy-isonicotinamide] | 0.0127 | 0.0034 |
| N#Cc1cc(F)cc(NC(=O)Nc2ccc([C@H]3CNCCO3)cc2F)c1 [Example 26, 1-(3-Cyano-5-fluoro-phenyl)-3-((S)-2-fluoro-4-morpholin-2-yl-phenyl)-urea] | 0.002 | 0.0012 |
| N#Cc1cc(NC(=O)Nc2ccc([C@H]3CNCCO3)cc2F)ccc1F [Example 27, 1-(3-Cyano-4-fluoro-phenyl)-3-((S)-2-fluoro-4-morpholin-2-yl-phenyl)-urea] | 0.0038 | 0.0028 |

From patent publication US9029370B2, “Substituted benzamide derivatives” (Hoffmann-La Roche Inc., priority 2011, dated 2015)
